Results from paper PMC4319993 (Nature, 2014).

Assays:
[1] = tested on: R. palustris LCC (RpLCC); test: coupled ATPase assay; format: biochemical, Rhodopseudomonas palustris; conditions: 1.5 mM ATP, 40 mM KHCO3, 10 mM MgCl2, 200 mM KCl, 100 mM Hepes pH 7.5; 0.25 uM enzyme
[2] = target: Mycobacterium avium subspecies paratuberculosis long-chain acyl-CoA carboxylase (Mycobacterium avium subspecies paratuberculosis); test: crystal structure
[3] = target: Mycobacterium avium subspecies paratuberculosis long-chain acyl-CoA carboxylase (Mycobacterium avium subspecies paratuberculosis); test: crystal structure; remark: listed apart in the source
[4] = target: Mycobacterium avium subspecies paratuberculosis long-chain acyl-CoA carboxylase (Mycobacterium avium subspecies paratuberculosis); test: SEC
[5] = target: Rhodopseudomonas palustris long-chain acyl-CoA carboxylase (Rhodopseudomonas palustris); test: SEC

Row | Compound | Km [1] [µM] | further results
1 | CCC(=O)SCCNC(=O)CCNC(=O)[C@H](O)C(C)(C)COP(=O)(O)OP(=O)(O)OC[C@H]1O[C@@H](n2cnc3c(N)ncnc32)[C@H](O)[C@@H]1OP(=O)(O)O [Propionyl-CoA] | 2200 ± 500 | 
2 | CCCC(=O)SCCNC(=O)CCNC(=O)[C@H](O)C(C)(C)COP(=O)(O)OP(=O)(O)OC[C@H]1O[C@@H](n2cnc3c(N)ncnc32)[C@H](O)[C@@H]1OP(=O)(O)O [Butyryl-CoA] | 820 ± 160 | 
3 | CCCCCCCCCCCC(=O)SCCNC(=O)CCNC(=O)[C@H](O)C(C)(C)COP(=O)(O)OP(=O)(O)OC[C@H]1O[C@@H](n2cnc3c(N)ncnc32)[C@H](O)[C@@H]1OP(=O)(O)O [Lauroyl-CoA] | 19 ± 3 | 
4 | CCCCCCCCCCCCCC(=O)SCCNC(=O)CCNC(=O)[C@H](O)C(C)(C)COP(=O)(O)OP(=O)(O)OC[C@H]1O[C@@H](n2cnc3c(N)ncnc32)[C@H](O)[C@@H]1OP(=O)(O)O [Myristoyl-CoA] | 26 ± 2 | 
5 | CC(=O)SCCNC(=O)CCNC(=O)[C@H](O)C(C)(C)COP(=O)(O)OP(=O)(O)OC[C@H]1O[C@@H](n2cnc3c(N)ncnc32)[C@H](O)[C@@H]1OP(=O)(O)O [Acetyl-CoA] | 2000 ± 300 | 
6 | CCCCCCCCCC(=O)SCCNC(=O)CCNC(=O)[C@H](O)C(C)(C)COP(=O)(O)OP(=O)(O)OC[C@H]1O[C@@H](n2cnc3c(N)ncnc32)[C@H](O)[C@@H]1OP(=O)(O)O [Decanoyl-CoA] | 33 ± 5 | 
7 | Mycobacterium avium subspecies paratuberculosis long-chain acyl-CoA carboxylase (enzyme) |  | stoichiometry N [2]: 6; stoichiometry N [3]: 6; stoichiometry N [4]: 6
8 | CCCCCCCC(=O)SCCNC(=O)CCNC(=O)[C@H](O)C(C)(C)COP(=O)(O)OP(=O)(O)OC[C@H]1O[C@@H](n2cnc3c(N)ncnc32)[C@H](O)[C@@H]1OP(=O)(O)O [Octanoyl-CoA] | 370 ± 60 | 
9 | Rhodopseudomonas palustris long-chain acyl-CoA carboxylase (enzyme) |  | stoichiometry N [5]: 6
10 | CCCCCC(=O)SCCNC(=O)CCNC(=O)[C@H](O)C(C)(C)COP(=O)(O)OP(=O)(O)OC[C@H]1O[C@@H](n2cnc3c(N)ncnc32)[C@H](O)[C@@H]1OP(=O)(O)O [Hexanoyl-CoA] | 200 ± 40 | 
11 | CCCCCCCCCCCCCCCC(=O)SCCNC(=O)CCNC(=O)[C@H](O)C(C)(C)COP(=O)(O)OP(=O)(O)OC[C@H]1O[C@@H](n2cnc3c(N)ncnc32)[C@H](O)[C@@H]1OP(=O)(O)O [Palmitoyl-CoA] | 5.8 ± 0.5 | 
